Experimental data: patent US7744867B2, “PTPase inhibitors and method of using same” (The Cleveland Clinic Foundation, priority 2001, dated 2010)

Legend:
[1] = system: MDA231 cells (Breast cancer); assay: Growth inhibition of human tumor cell lines (MTT); assay type: cell-based
Source text: (§1) FIG. 9 illustrates growth inhibition of human cell lines of non-hematopoietic malignancies by sodium stibogluconate and/or IFNα. Percentage of growth inhibition of WM9 (A), DU145 (B), MDA231 (C) and WiT49-N1 (D) in the absence or presence of various amounts of sodium stibogluconate and/or IFNα (1,000 u/ml) in day 6 cultures as measured by MTT assays.

[2] = system: DU145 cells (Prostate cancer); assay: Growth inhibition of human tumor cell lines (MTT); assay type: cell-based
Source text: as §1

WM9 cells (Melanoma) = assay: Growth inhibition of human tumor cell lines (MTT); assay type: cell-based
Source text: as §1
FIG. 10 illustrates sodium stibogluconate augments both IFNα- and IFNβ-induced growth inhibition of WM9 cells. Percentage of growth inhibition of WM9 cells in the absence or presence of various amounts of sodium stibogluconate, IFNα and IFNβ in day 6 cultures as measured by MTT assays. The data illustrates that sodium seems to interact with IFNα and IFNβ in a synergistic manner in growth inhibition of WM9 cells. Data from MTT antiproliferative assays was expressed as percent control growth (PCG) of treated cells, compared to untreated cells (100%). Median effect analysis (inset graphs), similar to isobol analysis, defined drug interaction in the IFNα+sodium stibogluconate and the IFNβ+sodium stibogluconate combinations as synergistic at all doses tested, characterized by a combination index (CI) of less than 1. Additivity is indicated by CI=1, and antagonism occurs when CI>1. Fraction affected (fa)=(100−PCG)/100.
Drug Interaction Analysis. Median effect analysis, which provides the most general form of studying the interactions between drugs, was utilized to analyze the interaction between sodium stibogluconate and IFNα or IFNβ. Since details regarding the mode of IFN and sodium stibogluconate interaction are not fully understood, and whether or not they act in a mutually exclusive fashion, we chose the most general analysis available. Dose response curves were generated for each drug alone, and also the combinations. Median effect plots were generated, which determined m and Dm values for IFN alone, sodium stibogluconate alone, and the combination. The combination index (CI) was determined and plotted vs. fraction affected (FA). Data were analyzed in both modes, mutually exclusive and mutually nonexclusive. […]

DS cells (lymphoma) = assay: Growth inhibition of human tumor cell lines (MTT); assay type: cell-based; conditions: day 3; IFNα 1,000 u/ml
Protocol: FIG. 8 illustrates growth inhibition of human cell lines of hematopoietic malignancies by sodium stibogluconate and/or IFNα: A and B. Growth of DS and DR cells cultured in the absence or presence of various amounts of sodium stibogluconate and/or IFNα (1,000 u/ml) for 3 days was measured by MTT assays; C. Percentage of growth inhibition of DR cells calculated from data in B; D. Percentage of growth inhibition of DR cells by IFNα (1,000 u/ml) and various amounts of sodium stibogluconate in day 6 cultures measured by MTT assays; E. Percentage of growth inhibition of U266 cells by IFNα (1,000 u/ml) and various amounts of sodium stibogluconate in day 6 cultures as measured by MTT assays.

NB4 cells = assay: Differentiation, proliferation and cell cycle of AML cell line; assay type: cell-based, human
Protocol: Cell lines, cell culture, and cell proliferation assay. The NB4 cell line was a gift from Dr. Dan Lindner of CCF. HL60 and U937 cell lines were purchased from ATCC. These human AML cell lines were maintained in RPMI 1640 medium supplemented with 10% fetal calf serum (FCS). For cell proliferation assays, cells were cultured at 37° C. in 10% FCS medium containing various amounts of sodium stibogluconate for 6 days. The cell numbers in the cultures were determined by an MTT assay as described previously.
Differentiation of AML cell lines was assessed by their ability to produce superoxide as measured by reduction of NBT to formazan and by analysis of expression of CD11b surface marker by flow cytometry. For NBT reduction, each cell suspension was mixed with an equal volume of solution containing 1 mg/ml of NBT (Sigma) and 2.5 μg/ml of TPA for 30 minutes at 37° C. After incubation, cells containing the purple formazan deposits and cells devoid of NBT-reducing activity (white cells) in each sample were determined by counting 200 cells under microscope. We expressed the data as percentage of the following ratio: purple cells/purple+white cells. For analysis of cell surface antigens, cells were exposed to phycoerythrin (PE)−conjugated murine anti-human CD11b (DAKO corp, Carpinteria, Calif.). Analysis of fluorescence was performed on a FACScan flow cytometer (Beckton Dickinson, Mountain View, Calif.). The cell cycle was analyzed by flow cytometry after 3 days of culture of NB4 cells in the absence or presence of sodium stibogluconate (250 μg/ml) or ATRA (1 μM). Briefly, the cells were fixed in cold ethanol and incubated for 30 minutes at 4° C. in the dark with a solution of […] propidium iodide, 1 mg/ml RNase and 0.1% NP-40. Analysis was performed immediately after staining using the CELLFIT program (Becton Dickinson, Mountain View, Calif.).

H9 cells (T-lymphoma) = assay: Growth inhibition of human tumor cell lines; assay type: cell-based; conditions: SS 12.5 μg/ml, IFNα 1,000 u/ml, alone or combined

Row | Molecule | cell killing as a single agent ([1]; MDA231, 50 μg/ml and 100 μg/ml, day 6 culture) | cell killing as a single agent ([2]; 50 μg/ml and 100 μg/ml, day 6 culture) | cell killing as a single agent (WM9 cells (Melanoma); WM9, 50 μg/ml and 100 μg/ml, day 6 culture) | activity against DS cells (DS cells (lymphoma)) | proliferation of NB4 cells (NB4 cells; 12.5-400 μg/ml, 6 days) | cell cycle arrest (DNA content analysis) (NB4 cells; 3 days, sodium stibogluconate 250 μg/ml, ATRA 1 μM) | expression levels of PML/RARα chimeric protein (NB4 cells; NB4 cells) | NB4 cell differentiation (NBT positive cells) (NB4 cells; dose- and time-dependent) | % of growth inhibition by day 6 (±s.d.) ([1]; MDA231, SS 12.5 μg/ml, IFNα 1,000 u/ml, alone or combined) | growth inhibition of MDA231 breast cancer cells ([1]; drug at 25 μg/ml, agents individually or in combination) [%] | % of growth inhibition by day 6 (±s.d.) ([2]; SS 12.5 μg/ml, IFNα 1,000 u/ml, alone or combined) | % of growth inhibition by day 6 (±s.d.) (H9 cells (T-lymphoma)) | % of growth inhibition by day 6 (±s.d.) (WM9 cells (Melanoma); WM9, SS 12.5 μg/ml, IFNα 1,000 u/ml, alone or combined) | growth inhibition of WM-9 melanoma cells (WM9 cells (Melanoma); drug at 25-100 μg/ml, agents individually or in combination) [%]
1 | O.O.O.O.O.O.O.O.O.O=C([O-])[C@@H]1[O][Sb]2([O-])([O][Sb]34([OH])[O][C@H]([C@H](O)CO)[C@H]([O]3)[C@H](C(=O)[O-])[O]4)[O][C@H]([C@H](O)CO)[C@@H]1[O]2.[Na+].[Na+].[Na+] [sodium stibogluconate] | killed all cells | killed all cells | killed all cells | modest activity | markedly inhibited | growth arrest at S phase | no detectable effect | induced | – | – | – | – | – | –
2 | IFNα | – | – | – | almost completely eliminated | – | – | – | – | 79 (2) % | 79 | 70 (5) % | 86 (3) % | 58 (2) % | 58
